Data: PubChem BioAssay (NCI)
Several values for one entry are separate records, joined by “and”; a condition that tells them apart may be missing. Equal entries are not always repeated.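 Exposure lasted 48 hours, with cells grown in 96-well plates and compounds tested at five concentrations. GI50: concentration for 50% inhibition of growth. TGI: total growth inhibition.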

Experiments:
Assay in all cases: NCI-60 cell line screen, 48 h
[1] = test system: SK-MEL-28 melanoma
[2] = test system: COLO 205 colon
[3] = test system: SK-MEL-5 melanoma
[4] = test system: UACC-257 melanoma
[5] = test system: SF-539 CNS
[6] = test system: NCI/ADR-RES ovarian
[7] = test system: OVCAR-5 ovarian
[8] = test system: MDA-MB-435
[9] = test system: HS 578T breast
[10] = test system: RXF 393 renal

Structure (SMILES) | GI50 [1] | TGI [1] | GI50 [2] | TGI [2] | TGI [3] | GI50 [4] | TGI [4] | GI50 [5] | TGI [5] | GI50 [6] | TGI [6] | GI50 [7] | TGI [7] | GI50 [8] | TGI [8] | GI50 [9] | TGI [9] | GI50 [10] | TGI [10] | GI50 [3]
O=C(Nc1cccc(Nc2ncc(Br)c(NCCc3cnc[nH]3)n2)c1)N1CCCC1 | 8.6 µM | 28.6 µM | 0.562 µM | 4.06 µM | 22.1 µM | 12 µM | 37.5 µM | 0.897 µM | 9.17 µM | > 66.7 µM | > 100 µM | 9.29 µM | 73.1 µM | 2.62 µM | 18.5 µM | 0.747 µM | 4.1 µM | 1.61 µM | 9.06 µM | 
CC1(C)OC2C(=O)C=C(COCc3ccccc3)C2O1 (stereo not given) |  | 95.4 µM |  | 41 µM | 25.8 µM |  | > 100 µM |  | 60.3 µM |  | > 100 µM |  | 84.6 µM |  | 71.2 µM |  | > 100 µM |  | 45.8 µM | 
N#Cc1c(N)[nH]c2ccc(Sc3ccccc3)cc12 |  | 17.4 µM |  | 1.34 µM | 4.43 µM |  | 29.5 µM |  | 0.694 µM |  | 10.2 µM |  | 18 µM |  | 0.146 µM |  | 25.8 µM |  | 5.48 µM | 
Nc1ccc(-c2nc3ccccc3[nH]2)c2ccccc12 | 4.27 µM | > 62.1 µM | 3.41 µM | 24.6 µM | 8.5 µM | 6.46 µM | > 100 µM | 3.11 µM | 17 µM | 2.08 µM | 7.37 µM | 6.08 µM | > 53.5 µM | 0.198 µM | 0.812 µM | 3.5 µM | > 30 µM | 1.83 µM | 12.2 µM | 1.65 µM
CN(C)c1ccc(N=Nc2ccncc2)cc1 |  | > 100 µM |  | > 100 µM | > 100 µM |  | > 100 µM |  | > 100 µM |  | > 100 µM |  | > 100 µM |  | > 100 µM |  | > 100 µM |  | > 100 µM | 
CC1=CC(=O)C(O)C2(C)C1CC(O)C13COC4(C)C(OC(=O)C41)C(O)C23 (stereo not given) | 7.32 µM | > 100 µM | 12.1 µM | 77.1 µM | 21.2 µM | 9.57 µM | 38.8 µM | 8.13 µM | 35.5 µM | 18.2 µM | 61.3 µM | 20.5 µM | 78.3 µM | 6.86 µM | 43 µM | 12.5 µM | 57.2 µM | 1.36 µM | 6.98 µM | 5.06 µM
COc1ccc2c(c1OC)C(=O)OC2C1c2c(c([N+](=O)[O-])c3c(c2OC)OCO3)CCN1C (stereo not given) | > 100 µM | > 100 µM | 66.6 µM | > 100 µM | > 100 µM | > 100 µM | > 100 µM | > 100 µM | > 100 µM | > 100 µM | > 100 µM | > 100 µM | > 100 µM | > 100 µM | > 100 µM | > 100 µM | > 100 µM | > 100 µM | > 100 µM | > 100 µM
CC(C)=CCC/C(C)=C/CC/C(C)=C/CC/C=C(\C)CC/C=C(\C)CCC(=O)Nc1ccn(C2OC(CO)C(O)C2(F)F)c(=O)n1 (stereo not given) | 2.64 µM | 21.9 µM | 0.0982 µM | 12.6 µM | 4.75 µM | 0.252 µM | 8.22 µM | 0.0268 µM | 0.475 µM | 0.116 µM | 16.6 µM | 1.21 µM | 26.3 µM | 0.144 µM | 7.58 µM | 10.3 µM | 35.2 µM | 1.09 µM | 7.15 µM | 0.168 µM
O=c1[nH]cnc2c(C3NC(CO)C(O)C3O)c[nH]c12 (stereo not given) | > 100 µM | > 100 µM | > 100 µM | > 100 µM | > 100 µM | > 100 µM | > 100 µM | > 100 µM | > 100 µM | > 100 µM | > 100 µM | > 100 µM | > 100 µM | > 100 µM | > 100 µM | > 100 µM | > 100 µM | > 100 µM | > 100 µM | > 100 µM
CN1CCC(n2cnc(-c3ccc(F)cc3)c2-c2ccnc(N)n2)CC1 | > 23.8 µM | > 25 µM | 7.07 µM | > 25 µM | > 25 µM | 11.7 µM | > 25 µM | 14.2 µM | > 25 µM | 7.55 µM | > 25 µM | 13.8 µM | > 25 µM | 8.82 µM | > 25 µM | 15.3 µM | > 25 µM | 9.74 µM | > 25 µM | 11.6 µM
C/C1=C\[C@@H](O)C(=O)/C=C/C=C\c2csc(n2)[C@@H](C)NC(=O)C[C@@]2(CC1)S(=O)SC(=O)[C@]2(C)O (stereo not given in full) |  | 0.0727 µM and 0.0168 µM |  | 0.0903 µM and 0.0418 µM | 0.0435 µM and 0.0168 µM |  | 0.115 µM and 0.0222 µM |  | 0.0495 µM and 0.023 µM |  | 0.11 µM | 0.0169 µM | 0.699 µM and 0.145 µM |  | 0.0562 µM |  | 0.435 µM |  | 0.0331 µM | 
Cc1ccc(NC(=O)c2ccccc2C(=O)O)cc1C |  | > 100 µM |  | > 100 µM | > 100 µM |  | > 100 µM |  | > 100 µM |  | > 100 µM |  | > 100 µM |  | > 100 µM |  | > 100 µM |  | > 100 µM | 
CSC(=S)N/N=C(\C)c1cccc(C)n1 |  | 63.5 µM |  | 2.82 µM | 8.56 µM |  | 21.9 µM |  | 7.34 µM |  | > 36.3 µM |  | 86.5 µM |  | > 35.7 µM |  | > 89 µM |  | 13.8 µM | 
